Measured values taken from US20210163453A1, “DERIVATIVES OF PAPAVERINE THAT ARE EFFECTIVE HYPOXIC TUMOR RADIOSENSITIZERS” (Ohio State Innovation Foundation, priority 2018, published 2021).
Structures can show the parent of a compound that is named as a salt.

Columns and labels:
mitochondrial complex 1 = experiment: Seahorse OCR inhibition of PPV derivatives, normalized to PPV; format: cell-based
Protocol: (§1) FIGS. 7A-7D show OCR and cellular toxicity data. […]. Bars represent mean OCR and PDE10 inhibitory activities from at least 5 (OCR) or 3 (PDE) replicates. All experiments were repeated at least twice. […] Values are mean+−SEM.
(§2) Seahorse analysis of the OCR. Oxygen consumption rate (OCR) was measured using Seahorse XF96 Flux Analyzer (Agilent Technologies). The cells were seeded to attach overnight, wells were washed with pre-warmed XF Calibrant (Agilent Technologies) and the replaced with unbuffered Assay Medium (pH 7.4, 5 mM glucose, 1 mM L-glutamine). The plates were incubated at 37° C. in a CO2-free incubator for 2 hours prior to assay. For succinate rescue assay, cells were permeabilized using XF Plasma Membrane Permeabilizer Reagent (XF PMP, Agilent Technologies) according to the manufacturer's instructions. The OCR rate was measured in 1× Mitochondrial Assay Solution (MAS) (70 mM sucrose, 220 mM mannitol, 10 mM KH2PO4, 5 mM MgCl2, 2 mM Hepes, 0.6% (w/v) fatty acid-free BSA and 1 mM EGTA; pH 7.4). After baseline oxygenation was established, 1 μM rotenone or 10 μM PPV was injected at time A, followed by 5 mM succinate at time B. Error bars represent standard deviation. For the washout experiment, EO771 cells were seeded overnight, then treated with 10 μM PPV or 1 μM rotenone 3 hours prior to OCR measurement. Media was replaced 1 and 2 hours before measurement and OCR reported.
Because PPV's effect on mitochondrial function is independent of cAMP levels it was reasoned that there are two activities in PPV, one inhibiting complex 1 and one inhibiting PDE10A that may reside in different parts of the molecule. The structure activity relationship of PPV relative to two assays was assessed: inhibition of cellular OCR by Seahorse, and inhibition of PDE10A by purified enzyme activity in multiwell plate (PDE10A activity assay kit, BPS Bioscience). Because PPV can compete with rotenone as complex 1 inhibitors, it was reasoned that they may be binding the same site and therefore the structures would be similar relative to the mitochondrial binding target. […] Because the top was a planar structure similar to that of rotenone, and they compete with each other for the same binding pocket on complex 1 (FIG. 10) the lower portion of the molecule and how it may resemble rotenone were investigated in more detail. It was established that flexible linkage was preferred for mitochondrial activity and bulky adducts to the lower benzene ring may block it (FIG. 7C). […] These lead compounds were synthesized from commercial precursors and purified on silica gel column. Structures were confirmed by ^1H NMR and found to be >95% pure by HPLC.

PDE10A = target: T1, PDE10A (Homo sapiens, UniProt Q9Y233); experiment: PDE10A enzymatic assay (PDE10A activity assay kit, BPS Bioscience); format: biochemical
T1 construct: purchased BPS Bioscience
T1 sequence (Q9Y233 267-1055): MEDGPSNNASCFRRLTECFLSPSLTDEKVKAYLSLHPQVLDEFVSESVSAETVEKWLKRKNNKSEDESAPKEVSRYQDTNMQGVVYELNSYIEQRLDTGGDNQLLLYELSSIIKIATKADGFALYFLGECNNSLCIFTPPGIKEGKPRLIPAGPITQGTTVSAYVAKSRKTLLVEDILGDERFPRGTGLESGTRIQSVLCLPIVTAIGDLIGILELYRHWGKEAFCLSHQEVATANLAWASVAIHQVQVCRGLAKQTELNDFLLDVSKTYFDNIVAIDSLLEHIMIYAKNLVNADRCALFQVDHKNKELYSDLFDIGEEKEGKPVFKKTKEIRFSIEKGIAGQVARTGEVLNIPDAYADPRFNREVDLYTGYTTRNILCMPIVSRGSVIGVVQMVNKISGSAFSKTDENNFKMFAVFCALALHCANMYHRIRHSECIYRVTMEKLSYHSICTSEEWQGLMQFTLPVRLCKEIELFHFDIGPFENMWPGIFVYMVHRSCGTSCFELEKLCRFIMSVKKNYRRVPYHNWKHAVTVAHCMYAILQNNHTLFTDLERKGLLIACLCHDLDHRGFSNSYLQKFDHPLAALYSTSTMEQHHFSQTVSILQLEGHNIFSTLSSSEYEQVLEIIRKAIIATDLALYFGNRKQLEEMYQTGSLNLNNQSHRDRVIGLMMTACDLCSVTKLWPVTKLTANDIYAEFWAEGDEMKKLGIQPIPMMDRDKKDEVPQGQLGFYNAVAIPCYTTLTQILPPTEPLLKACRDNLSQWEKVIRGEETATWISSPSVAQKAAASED
Protocol: FIGS. 7A-7D show OCR and cellular toxicity data. […] Bars represent mean OCR and PDE10 inhibitory activities from at least 5 (OCR) or 3 (PDE) replicates. All experiments were repeated at least twice. […] Values are mean+−SEM. […]
The structure activity relationship of PPV relative to two assays was assessed: inhibition of cellular OCR by Seahorse, and inhibition of PDE10A by purified enzyme activity in multiwell plate (PDE10A activity assay kit, BPS Bioscience). […] These lead compounds were synthesized from commercial precursors and purified on silica gel column.

A549 cells = experiment: Seahorse OCR in A549 cells (dose response, IC50, washout); format: cell-based, Human; settings: Homo sapiens; A549 cells by Seahorse, n=5 replicates; read-out: mitochondrial IC50 (OCR IC50)
[1] = Cellular toxicity of PPV derivatives by trypan blue; format: cell-based; settings: 10 uM, 72 h
Protocol: as §1
Experimental: Cell lines. All cell lines were purchased from the American Type Culture Collection (ATCC) and grown DMEM (Corning) supplemented with 10% FBS (Seradigm) and 1% Penicillin/Streptomycin (Fisher Bioreagents) at 37° C. in 5% CO2. Cells were treated with inhibitors papaverine hydrochloride (Sigma-Aldrich), rotenone (Sigma-Aldrich), piericidin A (Santa Cruz), capsaicin (Sigma-Aldrich), antimycin A (Sigma-Aldrich) and succinic acid disodium salt (Sigma-Aldrich). Cell viability was assessed by trypan blue exclusion.

EO771 tumors [2] = experiment: Pimonidazole staining, hypoxic fraction of EO771 tumors; format: in vivo, mice; settings: orthotopic EO771, immune-competent mice, 2 mg per kg
Protocol: (§3) P values were calculated against thigh muscle with two-tailed two-sample t test. FIG. 3B-3C show normalized tissue oxygenation in EO771 (b) or A549 (c) tumor-bearing mice after injection of 2 mg/kg PPV or vehicle saline (readings taken every minute, and curve is average of 5 traces). P value was analyzed by linear mixed model with autoregressive correlation structure at T=30-40 minutes. […] Values are mean area covered by pimonidazole-positive cells evaluated from 20 images per animal+−SEM. P value was calculated with two-tailed two-sample t test. […] Curves represent mean tumor volumes+−SEM. P values were calculated against XRT with two-tailed two-sample t test.
(§4) Bar graphs represent the mean area covered by pimonidazole-positive cells evaluated from 20 images per animal+−standard error of the mean. P value was calculated against control with two-tailed two-sample t test. […] Mean volumes+−SEM. P values were calculated against XRT with two-tailed two-sample t test. *P<0.05; **P<0.01; ***P<0.001; ****P<0.0001; n.s., not significant.
Pimonidazole staining. […] […] […] The hypoxic fraction of each tumor was quantified by thresholding signal at 50% of the maximum signal on control sections. Area covered by pimonidazole-positive cells was evaluated from 20 images per animal and averaged. Error bars represent the standard deviation.

EO771 tumors [3] = experiment: Tumor growth delay of EO771 tumors with radiation (XRT); format: in vivo, mice; settings: heterotopic EO771 flank tumors, nude mice, 2 mg/kg 35 minutes prior to 5 Gy
Protocol: as §3
FIGS. 4A-4G show tumor growth before and after radiosensitization with PPV. FIG. 4A-4B show in vitro radiation survival assessment of A549 cell line treated with 10 μm PPV in normoxia (FIG. 4A) and anoxia (FIG. 4B). […] Values represent averaged colony counts+−standard deviation. […] Values are mean tumor volumes+−SEM. […] Values are mean tumor volumes+−SEM. FIG. 4E-4F show tumor growth delay. When tumors reached 4-fold volume increase, groups receiving no treatment or PPV only (FIG. 4E); and XRT only or PPV followed by XRT (FIG. 4F), tumor weights were compared. Values are mean tumor weights+−SEM (n=8). P values were calculated with two-tailed two-sample t test. FIG. 4G are related to FIG. 4E-4F tumor growth delay. Representative images of orthotopic EO771 tumors harvested on day 11 after treatment with XRT (top) or 2 mg/kg PPV followed by XRT (bottom). *P<0.05; **P<0.01; ***P<0.001; ****P<0.0001; n.s., not significant.
as §4
Tumor Growth kinetics. 2×10^6 EO771 or 5×10^6 A549 cells were injected s.c. into the flanks of 6-week old female immunocompetent C57/B6 (EO771) or immunocompromised nu/nu (A549) mice. Caliper measurements of opposing diameter were used to calculate the tumor volumes. Upon reaching […], the tumors were visualized by cone beam CT and treatment plans calculated using SARRP software. X-rays were delivered with a single beam delivering 5 Gy using the Small Animal Research Radiation Platform (SARRP, Xstrahl). Tumor volumes were measured until the post treatment volume increased 3-fold. Error bars represent standard deviation.
Both models of transplanted tumors that were used for the oxygenation experiments of papaverine's effect on radiation response in vivo were investigated. The murine breast cancer line EO771 that is syngeneic with the BL6 strain of mice was used and transplanted it orthotopically into the mammary fat pad of immune-competent mice. Also used was the human A549 lung adenocarcinoma line that was transplanted into the flank of immune-deficient mice. The breast cancers grew to approximately 150 mm^3 and were then randomized to receive either no treatment, a single dose of either 5 Gy, or papaverine at 2 mg/kg followed 30-40 minutes later by 5 Gy.

Panc1 cells = experiment: Seahorse OCR in Panc1 cell line; format: cell-based, Human; settings: increasing concentrations (sildenafil citrate 0, 5, 10, 20; 8-Bromo-cAMP 0, 10, 20)
Protocol: FIGS. 7A-7D show OCR and cellular toxicity data. […] Bars represent mean OCR and PDE10 inhibitory activities from at least 5 (OCR) or 3 (PDE) replicates. All experiments were repeated at least twice. […] Values are mean+−SEM.
as §2

## COc1cc2ccnc(Cc3cc(C)cc(C)c3)c2cc1OC [SMV-23]
Mitochondrial complex 1; Seahorse, OCR inhibition at 10 μM concentration, normalized to PPV
  Inhibitory activity OCR % of PPV: 20.37 % of PPV
Mitochondrial complex 1; compared to PPV
  complex 1 activity compared to PPV: 20%
PDE10A; PDE10A2 enzymatic assay, n=3 replicates, read-out: PDE IC20 (PDE10A IC20)
  IC20: 0.5 µM
PDE10A; PDE10A inhibition at 1 μM, normalized to PPV
  Inhibitory activity PDE10A % of PPV: 121.49 % of PPV
PDE10A; compared to PPV
  PDE10 activity compared to PPV: 125%
A549 cells
  IC50: 94 µM
[1]
  cellular toxicity in vitro: Neither of these compounds shows cellular toxicity
EO771 tumors [2]
  tumor hypoxia by pimonidazole staining: no effect on hypoxia
EO771 tumors [3]
  growth delay compared to radiation alone: no increase in growth delay

## CCCc1nn(C)c2c(=O)[nH]c(-c3cc(S(=O)(=O)N4CCN(C)CC4)ccc3OCC)nc12 [sildenafil citrate]
Panc1 cells
  effect on OCR: no effect
